Data on 15 compounds can be found in patent US20230257372A1 (CHONG KUN DANG PHARMACEUTICAL CORP., priority 2020, published 2023).

Read-outs that look alike come from different tables or passages of the source.

The target of one assay is T1, human recombinant HDAC6 (Homo sapiens, UniProt Q9UBN7).
T1 construct: purchased Calbiochem Inc. 382180
T1 sequence (Q9UBN7 1-1215): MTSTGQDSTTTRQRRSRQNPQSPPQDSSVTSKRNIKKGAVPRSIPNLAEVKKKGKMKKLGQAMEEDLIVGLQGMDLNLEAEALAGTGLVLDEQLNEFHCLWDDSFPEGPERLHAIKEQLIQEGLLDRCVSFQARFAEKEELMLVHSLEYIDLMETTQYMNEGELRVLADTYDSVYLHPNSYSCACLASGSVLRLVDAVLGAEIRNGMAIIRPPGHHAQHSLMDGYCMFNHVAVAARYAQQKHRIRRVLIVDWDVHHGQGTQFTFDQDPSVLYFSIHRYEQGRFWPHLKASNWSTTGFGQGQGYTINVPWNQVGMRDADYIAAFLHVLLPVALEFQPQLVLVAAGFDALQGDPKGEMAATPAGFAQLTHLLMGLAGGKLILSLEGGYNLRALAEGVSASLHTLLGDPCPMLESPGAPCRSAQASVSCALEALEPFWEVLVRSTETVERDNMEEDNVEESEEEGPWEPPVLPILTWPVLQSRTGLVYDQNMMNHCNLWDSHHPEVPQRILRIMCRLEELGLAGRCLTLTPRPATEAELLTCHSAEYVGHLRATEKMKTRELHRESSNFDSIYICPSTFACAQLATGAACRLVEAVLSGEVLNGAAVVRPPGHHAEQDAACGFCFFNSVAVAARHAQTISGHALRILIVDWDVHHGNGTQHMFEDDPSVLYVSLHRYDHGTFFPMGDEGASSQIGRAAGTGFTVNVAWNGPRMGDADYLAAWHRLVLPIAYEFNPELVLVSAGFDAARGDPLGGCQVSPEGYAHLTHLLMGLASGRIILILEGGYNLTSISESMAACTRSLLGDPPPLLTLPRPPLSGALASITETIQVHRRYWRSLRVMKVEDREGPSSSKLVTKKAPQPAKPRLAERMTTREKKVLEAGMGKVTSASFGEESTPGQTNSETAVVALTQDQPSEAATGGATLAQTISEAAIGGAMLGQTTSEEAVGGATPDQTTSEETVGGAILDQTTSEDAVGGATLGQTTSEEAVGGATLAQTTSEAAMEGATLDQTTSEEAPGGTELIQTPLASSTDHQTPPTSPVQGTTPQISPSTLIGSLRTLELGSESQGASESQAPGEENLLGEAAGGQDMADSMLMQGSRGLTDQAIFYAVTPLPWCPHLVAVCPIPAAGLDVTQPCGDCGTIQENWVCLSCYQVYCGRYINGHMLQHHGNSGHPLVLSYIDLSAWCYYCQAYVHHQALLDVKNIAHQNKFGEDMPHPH
Description: HDAC6 enzyme activity inhibition (HDAC Fluorimetric Drug Discovery Kit). The class given is biochemical. A digest of the protocol:
(§1)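 Five-fold compound dilutions incubated with […] recombinant enzyme and 10 μM fluorogenic Fluor de Lys substrate, 60 min at 30° C. Fluor de Lys Developer II then added for 30 min to generate the fluorescent read-out.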

The subject of assay [1] is hippocampal neurons from a Sprague-Dawley (SD) rat fetus. Description: Effect of HDAC6-specific inhibitor on axonal transport of mitochondria in amyloid-beta treated neurons. Type of assay: cell-based. The following applies: transport velocity of mitochondria in neuronal axon after normalization; vehicle = 100%, amyloid beta treatment group = 0%; compound treatment for three hours. Summed up:
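Rat E17-18 hippocampal neurons exposed to amyloid-beta fragments […]; after 24 h (day 8 in vitro) compound added for 3 h, mitochondria stained with MitoTracker Red CMXRos. Confocal imaging every 1 s for 1 min gave per-mitochondrion velocity, normalized vehicle = 100%, amyloid-beta = 0%.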

Another assay addresses T2, human recombinant HDAC1 (Homo sapiens, UniProt Q13547).
T2 construct: purchased Enzo Life Science, Inc. BML-SE456
Briefly: HDAC1 enzyme activity inhibition (HDAC Fluorimetric Drug Discovery Kit). The class given is biochemical. The following applies: read-out: HDAC1. Summed up: as §1

The mark [2] stands for this setting: human recombinant HDAC6, IC50 calculated with GraphPad Prism.
[3] abbreviates: human recombinant HDAC1, IC50 calculated with GraphPad Prism.

T2 sequence (Q13547 whole entry): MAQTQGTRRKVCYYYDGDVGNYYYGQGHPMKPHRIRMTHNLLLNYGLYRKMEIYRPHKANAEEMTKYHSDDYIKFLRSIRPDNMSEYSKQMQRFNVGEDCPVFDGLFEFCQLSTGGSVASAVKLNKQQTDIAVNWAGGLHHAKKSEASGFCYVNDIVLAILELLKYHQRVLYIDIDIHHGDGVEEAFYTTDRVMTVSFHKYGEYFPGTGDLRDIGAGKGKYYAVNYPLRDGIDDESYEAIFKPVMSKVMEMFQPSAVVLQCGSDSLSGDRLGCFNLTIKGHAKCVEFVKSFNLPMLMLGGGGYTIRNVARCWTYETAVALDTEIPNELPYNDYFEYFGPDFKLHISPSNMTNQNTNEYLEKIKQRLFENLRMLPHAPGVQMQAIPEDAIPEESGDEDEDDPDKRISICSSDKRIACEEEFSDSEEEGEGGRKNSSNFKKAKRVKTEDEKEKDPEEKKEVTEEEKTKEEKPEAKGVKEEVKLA

Take `CCN1CCc2cc(-c3cn(Cc4ccc(-c5nnc(C(F)F)o5)cn4)nn3)ccc2C1` [Compound 4052, 2-(difluoromethyl)-5-(6-((4-(2-ethyl-1,2,3,4-tetrahydroisoquinolin-6-yl)-1H-1,2,3-triazol-1-yl)methyl)pyridin-3-yl)-1,3,4-oxadiazole]: at human recombinant HDAC6 (HDAC1 IC50 / HDAC6 IC50), the “HDAC6 selectivity (fold)” value is given as 1128 fold. Moreover, the IC50 is 44.3 nM on human recombinant HDAC6 (setting [2]) and over 50000 nM on human recombinant HDAC1 (setting [3]). Also, in assay [1], the “Velocity distribution (%)” value is on record as “** (**, 50%˜100%)”.
For the compound `Fc1cc(-c2nnc(C(F)F)o2)ccc1Cn1cc(-c2ccc3c(c2)CCN(C2CCC2)C3)nn1` [Compound 4361, 2-(4-((4-(2-cyclobutyl-1,2,3,4-tetrahydroisoquinolin-6-yl)-1H-1,2,3-triazol-1-yl)methyl)-3-fluorophenyl)-5-(difluoromethyl)-1,3,4-oxadiazole], at human recombinant HDAC6 (HDAC1 IC50 / HDAC6 IC50), the “HDAC6 selectivity (fold)” value is given as 668 fold. Also, the IC50 is 74.8 nM on human recombinant HDAC6 (setting [2]) and over 50000 nM at human recombinant HDAC1 (setting [3]). Besides, the “Velocity distribution (%)” value in assay [1] is listed as “** (**, 50%˜100%)”.
For the compound `FC(F)c1nnc(-c2ccc(Cn3cc(-c4ccccn4)nn3)nc2)o1` [Compound 3881, 2-(difluoromethyl)-5-(6-((4-(pyridin-2-yl)-1H-1,2,3-triazol-1-yl)methyl)pyridin-3-yl)-1,3,4-oxadiazole], the “HDAC6 selectivity (fold)” value at human recombinant HDAC6 (HDAC1 IC50 / HDAC6 IC50) stood at 1470 fold. The IC50 at human recombinant HDAC6 (setting [2]) was 34 nM; on human recombinant HDAC1 (setting [3]) it was over 50000 nM. Also, the “Velocity distribution (%)” value in assay [1] is on record as “*** (***, >100%)”.
For the compound `FC(F)c1nnc(-c2ccc(Cn3cc(-c4ccc5c(CN6CCOCC6)c[nH]c5c4)nn3)nc2)o1` [Compound 3944, 4-((6-(1-((5-(5-(difluoromethyl)-1,3,4-oxadiazol-2-yl)pyridin-2-yl)methyl)-1H-1,2,3-triazol-4-yl)-1H-indol-3-yl)methyl)morpholine], on human recombinant HDAC6 (HDAC1 IC50 / HDAC6 IC50), the “HDAC6 selectivity (fold)” value is recorded as 7462 fold. The IC50 at human recombinant HDAC6 (setting [2]) was 6.7 nM; at human recombinant HDAC1 (setting [3]), over 50000 nM. Further, the “Velocity distribution (%)” value in assay [1] is “* (*, 0%˜50%)”.
For `FC(F)c1nnc(-c2ccc(Cn3cc(-c4cccc(CN5CCOCC5)c4)nn3)nc2)o1` [Compound 3916, 4-(3-(1-((5-(5-(difluoromethyl)-1,3,4-oxadiazol-2-yl)pyridin-2-yl)methyl)-1H-1,2,3-triazol-4-yl)benzyl)morpholine], the “HDAC6 selectivity (fold)” value at human recombinant HDAC6 (HDAC1 IC50 / HDAC6 IC50) stood at 1754 fold. In addition, the IC50 on human recombinant HDAC6 (setting [2]) is 28.5 nM; at human recombinant HDAC1 (setting [3]) it was over 50000 nM. The “Velocity distribution (%)” value in assay [1] is reported as “*** (***, >100%)”.
Take `Fc1cc(-c2nnc(C(F)F)o2)ccc1Cn1cc(-c2ccc3c(CN4CCOCC4)c[nH]c3c2)nn1` [Compound 4112]: the “HDAC6 selectivity (fold)” value on human recombinant HDAC6 (HDAC1 IC50 / HDAC6 IC50) is 3125 fold. Also, the values for the IC50 at human recombinant HDAC6 (setting [2]) and on human recombinant HDAC1 (setting [3]) were 16 nM and over 50000 nM, respectively. Also, the “Velocity distribution (%)” value in assay [1] was “*** (***, >100%)”.
On to `CC(=O)Nc1cccc(-c2cn(Cc3ccc(-c4nnc(C(F)F)o4)cc3F)nn2)c1` [Compound 3775, N-(3-(1-(4-(5-(difluoromethyl)-1,3,4-oxadiazol-2-yl)-2-fluorobenzyl)-1H-1,2,3-triazol-4-yl)phenyl)acetamide], for which the “HDAC6 selectivity (fold)” value on human recombinant HDAC6 (HDAC1 IC50 / HDAC6 IC50) came to 1712 fold. Also, the IC50 on human recombinant HDAC6 (setting [2]) was 29.2 nM; on human recombinant HDAC1 (setting [3]), over 50000 nM. For the same compound, in assay [1], the “Velocity distribution (%)” value is “* (*, 0%˜50%)”.
On to `FC(F)c1nnc(-c2ccc(Cn3cc(-c4ccc5occc5c4)nn3)nc2)o1` [Compound 4073, 2-(6-((4-(benzofuran-5-yl)-1H-1,2,3-triazol-1-yl)methyl)pyridin-3-yl)-5-(difluoromethyl)-1,3,4-oxadiazole], for which the “HDAC6 selectivity (fold)” value at human recombinant HDAC6 (HDAC1 IC50 / HDAC6 IC50) was 822 fold. Besides, the values for the IC50 on human recombinant HDAC6 (setting [2]) and on human recombinant HDAC1 (setting [3]) were 60.8 nM and over 50000 nM, respectively. Moreover, the “Velocity distribution (%)” value in assay [1] was “** (**, 50%˜100%)”.
For the compound `CN(C)Cc1c[nH]c2cc(-c3cn(Cc4ccc(-c5nnc(C(F)F)o5)cn4)nn3)ccc12` [Compound 3962, 1-(6-(1-((5-(5-(difluoromethyl)-1,3,4-oxadiazol-2-yl)pyridin-2-yl)methyl)-1H-1,2,3-triazol-4-yl)-1H-indol-3-yl)-N,N-dimethylmethanamine], the “HDAC6 selectivity (fold)” value at human recombinant HDAC6 (HDAC1 IC50 / HDAC6 IC50) is listed as 4629 fold. In addition, the IC50 is 10.8 nM at human recombinant HDAC6 (setting [2]) and over 50000 nM at human recombinant HDAC1 (setting [3]). Also, in assay [1], the “Velocity distribution (%)” value was “*** (***, >100%)”.
Regarding `O=C(Nc1cccc(-c2cn(Cc3ccc(-c4nnc(C(F)F)o4)cc3F)nn2)c1)C(F)(F)F` [Compound 3777, N-(3-(1-(4-(5-(difluoromethyl)-1,3,4-oxadiazol-2-yl)-2-fluorobenzyl)-1H-1,2,3-triazol-4-yl)phenyl)-2,2,2-trifluoroacetamide], the “HDAC6 selectivity (fold)” value on human recombinant HDAC6 (HDAC1 IC50 / HDAC6 IC50) is 2222 fold. The results for the IC50 on human recombinant HDAC6 (setting [2]) and at human recombinant HDAC1 (setting [3]) were 22.5 nM and over 50000 nM, respectively. Also, in assay [1], the “Velocity distribution (%)” value is listed as “* (*, 0%˜50%)”.
With `CCN1CCN(c2cccc(-c3cn(Cc4ccc(-c5nnc(C(F)F)o5)cc4F)nn3)c2)CC1` [Compound 4373, 2-(difluoromethyl)-5-(4-((4-(3-(4-ethylpiperazin-1-yl)phenyl)-1H-1,2,3-triazol-1-yl)methyl)-3-fluorophenyl)-1,3,4-oxadiazole], on human recombinant HDAC6 (HDAC1 IC50 / HDAC6 IC50), the “HDAC6 selectivity (fold)” value was 335 fold. For the same compound, the IC50 at human recombinant HDAC6 (setting [2]) was 14.9 nM; at human recombinant HDAC1 (setting [3]), over 50000 nM. Further, the “Velocity distribution (%)” value in assay [1] is on record as “*** (***, >100%)”.
Take `CN1CCC(c2cccc(-c3cn(Cc4ccc(-c5nnc(C(F)F)o5)cn4)nn3)c2)CC1` [Compound 4010, 2-(difluoromethyl)-5-(6-((4-(3-(1-methylpiperidin-4-yl)phenyl)-1H-1,2,3-triazol-1-yl)methyl)pyridin-3-yl)-1,3,4-oxadiazole]: on human recombinant HDAC6 (HDAC1 IC50 / HDAC6 IC50), the “HDAC6 selectivity (fold)” value amounted to 2369 fold. The values for the IC50 at human recombinant HDAC6 (setting [2]) and on human recombinant HDAC1 (setting [3]) were 21.1 nM and over 50000 nM, respectively. Besides, in assay [1], the “Velocity distribution (%)” value was “*** (***, >100%)”.
Regarding `CN1CCN(c2ccc(-c3cn(Cc4ccc(-c5nnc(C(F)F)o5)cn4)nn3)cc2)CC1` [Compound 4107, 2-(difluoromethyl)-5-(6-((4-(4-(4-methylpiperazin-1-yl)phenyl)-1H-1,2,3-triazol-1-yl)methyl)pyridin-3-yl)-1,3,4-oxadiazole], the “HDAC6 selectivity (fold)” value at human recombinant HDAC6 (HDAC1 IC50 / HDAC6 IC50) stood at 1256 fold. The figures for the IC50 on human recombinant HDAC6 (setting [2]) and at human recombinant HDAC1 (setting [3]) were 39.8 nM and over 50000 nM, respectively. In assay [1], the “Velocity distribution (%)” value is “** (**, 50%˜100%)”.
For the compound `FC(F)c1nnc(-c2ccc(Cn3cc(-c4cccc(NC5CCOCC5)c4)nn3)nc2)o1` [Compound 3827, N-(3-(1-((5-(5-(difluoromethyl)-1,3,4-oxadiazol-2-yl)pyridin-2-yl)methyl)-1H-1,2,3-triazol-4-yl)phenyl)tetrahydro-2H-pyran-4-amine], the “HDAC6 selectivity (fold)” value on human recombinant HDAC6 (HDAC1 IC50 / HDAC6 IC50) is given as 2487 fold. Also, the IC50 at human recombinant HDAC6 (setting [2]) is 20.1 nM; on human recombinant HDAC1 (setting [3]), over 50000 nM. The “Velocity distribution (%)” value in assay [1] is recorded as “*** (***, >100%)”.
For the compound `Fc1cc(-c2nnc(C(F)F)o2)ccc1Cn1cc(-c2cn3ccccc3n2)nn1` [Compound 17201, 2-(difluoromethyl)-5-(3-fluoro-4-((4-(imidazo[1,2-a]pyridin-2-yl)-1H-1,2,3-triazol-1-yl)methyl)phenyl)-1,3,4-oxadiazole], the “HDAC6 selectivity (fold)” value on human recombinant HDAC6 (HDAC6 over HDAC1) is on record as 639 fold. For the same compound, the IC50 at human recombinant HDAC6 (human recombinant HDAC6, same protocol as HDAC1) was 78.2 nM; on human recombinant HDAC1 (human recombinant HDAC1, Fluor de Lys substrate, 30° C. 60 minutes), over 50000 nM. The “Velocity distribution (%)” value in assay [1] is on record as “* (*, 0%˜50%)”.
